# Experimental data reported in patent US6992079B2, “Substituted 11-phenyl-dibenzazepine compounds useful for the treatment or prevention of diseases characterized by abnormal cell proliferation” (President Fellows of Harvard College, priority 1997, dated 2006).
# Read-outs that look alike come from different tables or passages of the source.
# Tests used:
# SK-MEL-5 = assay: In-Vitro Testing SRB panel: Melanoma; type: cell-based; conditions: SK-MEL-5, 48 h
# RPMI-8226 = assay: In-Vitro Testing SRB panel: Leukemia; type: cell-based; conditions: RPMI-8226, 48 h
# CCRF-CEM = assay: In-Vitro Testing SRB panel: Leukemia; type: cell-based; conditions: 48 h
# ACHN = assay: In-Vitro Testing SRB panel: Renal Cancer; type: cell-based; conditions: 48 h
# OVCAR-5 = assay: In-Vitro Testing SRB panel: Ovarian Cancer; type: cell-based; conditions: OVCAR-5, 48 h
# OVCAR-4 = assay: In-Vitro Testing SRB panel: Ovarian Cancer; type: cell-based; conditions: OVCAR-4, 48 h
# NCI-H23 = type: cell-based; conditions: NCI-H23, 48 h
# SNB-75 = assay: In-Vitro Testing SRB panel: CNS Cancer; type: cell-based; conditions: SNB-75, 48 h
# BT-549 = assay: In-Vitro Testing SRB panel: Breast Cancer; type: cell-based; conditions: BT-549, 48 h
# [1] = test system: H460 large cell lung carcinoma; assay: Mouse xenograft tumor growth; type: in vivo, CD-1 nude mice
# T-47D = assay: In-Vitro Testing SRB panel: Breast Cancer; type: cell-based; conditions: 48 h
# ROP-92 = type: cell-based; conditions: 48 h
# SN12C = assay: In-Vitro Testing SRB panel: Renal Cancer; type: cell-based; conditions: 48 h
# MDA-MB-231/ATCC = assay: In-Vitro Testing SRB panel: Breast Cancer; type: cell-based
# MALM-3M = assay: In-Vitro Testing SRB panel: Melanoma; type: cell-based; conditions: 48 h
# NCI-H522 = type: cell-based; conditions: NCI-H522, 48 h
# K-562 = assay: In-Vitro Testing SRB panel: Leukemia; type: cell-based
# IGROV1 = assay: In-Vitro Testing SRB panel: Ovarian Cancer; type: cell-based
# [2] = Homo sapiens, read-out: LC50 (the source's name)
smiles,measurement,setting,value
"O=C(c1ccc([N+](=O)[O-])cc1)N1Cc2ccccc2C(c2ccccc2Cl)c2ccccc21 (centres unmarked) [Compound 28, N-(4′-Nitrobenzoyl)-11-(2′-chlorophenyl)-5,6-dihydro-11H-dibenz[b,e]azepine]",GI50,SK-MEL-5; Homo sapiens,0.529 µM
same,CC50,SK-MEL-5; [2],> 100 µM
same,TGI,SK-MEL-5,1.74E−05 Molar
same,Percent Growth,SK-MEL-5; log10 conc −4.0 Molar,−25%
same,Percent Growth,SK-MEL-5; log10 conc −5.0 Molar,8%
same,Percent Growth,SK-MEL-5; log10 conc −6.0 Molar,40%
same,Percent Growth,SK-MEL-5; log10 conc −7.0 Molar,76%
same,Percent Growth,SK-MEL-5; log10 conc −8.0 Molar,84%
same,GI50,RPMI-8226; Homo sapiens,0.522 µM
same,CC50,RPMI-8226; [2],> 100 µM
same,TGI,RPMI-8226,>1.00E−04 Molar
same,Percent Growth,RPMI-8226; log10 conc −4.0 Molar,12%
same,Percent Growth,RPMI-8226; log10 conc −5.0 Molar,36%
same,Percent Growth,RPMI-8226; log10 conc −6.0 Molar,46%
same,Percent Growth,RPMI-8226; log10 conc −7.0 Molar,61%
same,Percent Growth,RPMI-8226; log10 conc −8.0 Molar,74%
same,TGI,CCRF-CEM,2.99E−06 Molar
same,GI50,CCRF-CEM; Homo sapiens,0.0909 µM
same,CC50,CCRF-CEM; [2],> 100 µM
same,Percent Growth,CCRF-CEM; log10 conc −4.0 Molar,−3%
same,Percent Growth,CCRF-CEM; log10 conc −5.0 Molar,−11%
same,Percent Growth,CCRF-CEM; log10 conc −6.0 Molar,10%
same,Percent Growth,CCRF-CEM; log10 conc −7.0 Molar,49%
same,Percent Growth,CCRF-CEM; log10 conc −8.0 Molar,66%
same,TGI,ACHN,>1.00E−04 Molar
same,GI50,ACHN; Homo sapiens,1.37 µM
same,CC50,ACHN; [2],> 100 µM
same,Percent Growth,ACHN; log10 conc −4.0 Molar,19%
same,Percent Growth,ACHN; log10 conc −5.0 Molar,30%
same,Percent Growth,ACHN; log10 conc −6.0 Molar,53%
same,Percent Growth,ACHN; log10 conc −7.0 Molar,92%
same,Percent Growth,ACHN; log10 conc −8.0 Molar,102%
same,GI50,OVCAR-5; Homo sapiens,> 100 µM
same,CC50,OVCAR-5; [2],> 100 µM
same,TGI,OVCAR-5,>1.00E−04 Molar
same,Percent Growth,OVCAR-5; log10 conc −4.0 Molar,68%
same,Percent Growth,OVCAR-5; log10 conc −5.0 Molar,75%
same,Percent Growth,OVCAR-5; log10 conc −6.0 Molar,91%
same,Percent Growth,OVCAR-5; log10 conc −7.0 Molar,96%
same,Percent Growth,OVCAR-5; log10 conc −8.0 Molar,110%
same,GI50,OVCAR-4; Homo sapiens,0.974 µM
same,CC50,OVCAR-4; [2],> 100 µM
same,TGI,OVCAR-4,>1.00E−04 Molar
same,Percent Growth,OVCAR-4; log10 conc −4.0 Molar,10%
same,Percent Growth,OVCAR-4; log10 conc −5.0 Molar,16%
same,Percent Growth,OVCAR-4; log10 conc −6.0 Molar,50%
same,Percent Growth,OVCAR-4; log10 conc −7.0 Molar,80%
same,Percent Growth,OVCAR-4; log10 conc −8.0 Molar,98%
same,GI50,NCI-H23; Homo sapiens,1.61 µM
same,CC50,NCI-H23; [2],> 100 µM
same,TGI,NCI-H23,>1.00E−04 Molar
same,Percent Growth,NCI-H23; log10 conc −4.0 Molar,41%
same,Percent Growth,NCI-H23; log10 conc −5.0 Molar,43%
same,Percent Growth,NCI-H23; log10 conc −6.0 Molar,52%
same,Percent Growth,NCI-H23; log10 conc −7.0 Molar,93%
same,Percent Growth,NCI-H23; log10 conc −8.0 Molar,100%
same,GI50,SNB-75; Homo sapiens,5.25 µM
same,CC50,SNB-75; [2],> 100 µM
same,TGI,SNB-75,>1.00E−04 Molar
same,Percent Growth,SNB-75; log10 conc −4.0 Molar,17%
same,Percent Growth,SNB-75; log10 conc −5.0 Molar,26%
same,Percent Growth,SNB-75; log10 conc −6.0 Molar,75%
same,Percent Growth,SNB-75; log10 conc −7.0 Molar,111%
same,Percent Growth,SNB-75; log10 conc −8.0 Molar,108%
same,TGI,BT-549,>1.00E−04 Molar
same,Percent Growth,BT-549; log10 conc −4.0 Molar,34%
same,Percent Growth,BT-549; log10 conc −5.0 Molar,46%
same,Percent Growth,BT-549; log10 conc −6.0 Molar,70%
same,Percent Growth,BT-549; log10 conc −7.0 Molar,87%
same,Percent Growth,BT-549; log10 conc −8.0 Molar,98%
same,GI50,BT-549; Homo sapiens,6.7 µM
same,CC50,BT-549; [2],> 100 µM
same,tumor growth,[1],significantly inhibited tumor growth
same,GI50,"T-47D; Homo sapiens, T47D",1.44 µM
same,CC50,"T-47D; Homo sapiens, T47D, T-47D, read-out: LC50 (the source's name)",> 100 µM
same,TGI,T-47D; T-47D,>1.00E−04 Molar
same,Percent Growth,"T-47D; T-47D, log10 conc −4.0 Molar",26%
same,Percent Growth,"T-47D; T-47D, log10 conc −5.0 Molar",21%
same,Percent Growth,"T-47D; T-47D, log10 conc −6.0 Molar",55%
same,Percent Growth,"T-47D; T-47D, log10 conc −7.0 Molar",90%
same,Percent Growth,"T-47D; T-47D, log10 conc −8.0 Molar",95%
same,GI50,ROP-92; Homo sapiens,7.51 µM
same,CC50,"ROP-92; Homo sapiens, ROP-92, read-out: LC50 (the source's name)",> 100 µM
same,TGI,ROP-92; ROP-92,>1.00E−04 Molar
same,Percent Growth,"ROP-92; ROP-92, log10 conc −4.0 Molar",19%
same,Percent Growth,"ROP-92; ROP-92, log10 conc −5.0 Molar",46%
same,Percent Growth,"ROP-92; ROP-92, log10 conc −6.0 Molar",79%
same,Percent Growth,"ROP-92; ROP-92, log10 conc −7.0 Molar",104%
same,Percent Growth,"ROP-92; ROP-92, log10 conc −8.0 Molar",100%
same,TGI,SN12C,>1.00E−04 Molar
same,GI50,SN12C; Homo sapiens,4.52 µM
same,CC50,SN12C; [2],> 100 µM
same,Percent Growth,SN12C; log10 conc −4.0 Molar,23%
same,Percent Growth,SN12C; log10 conc −5.0 Molar,36%
same,Percent Growth,SN12C; log10 conc −6.0 Molar,77%
same,Percent Growth,SN12C; log10 conc −7.0 Molar,103%
same,Percent Growth,SN12C; log10 conc −8.0 Molar,100%
same,GI50,"MDA-MB-231/ATCC; Homo sapiens, MDA-MB-231, 48 h",4.94 µM
same,CC50,"MDA-MB-231/ATCC; Homo sapiens, MDA-MB-231/ATCC, 48 h, read-out: LC50 (the source's name)",> 100 µM
same,TGI,"MDA-MB-231/ATCC; MDA-MB-231/ATCC, 48 h",>1.00E−04 Molar
same,Percent Growth,"MDA-MB-231/ATCC; MDA-MB-231/ATCC, log10 conc −4.0 Molar, 48 h",22%
same,Percent Growth,"MDA-MB-231/ATCC; MDA-MB-231/ATCC, log10 conc −5.0 Molar, 48 h",36%
same,Percent Growth,"MDA-MB-231/ATCC; MDA-MB-231/ATCC, log10 conc −6.0 Molar, 48 h",72%
same,Percent Growth,"MDA-MB-231/ATCC; MDA-MB-231/ATCC, log10 conc −7.0 Molar, 48 h",96%
same,Percent Growth,"MDA-MB-231/ATCC; MDA-MB-231/ATCC, log10 conc −8.0 Molar, 48 h",103%
same,GI50,MALM-3M; Homo sapiens,49.6 µM
same,CC50,"MALM-3M; Homo sapiens, MALM-3M, read-out: LC50 (the source's name)",> 100 µM
same,TGI,MALM-3M; MALM-3M,>1.00E−04 Molar
same,Percent Growth,"MALM-3M; MALM-3M, log10 conc −4.0 Molar",39%
same,Percent Growth,"MALM-3M; MALM-3M, log10 conc −5.0 Molar",76%
same,Percent Growth,"MALM-3M; MALM-3M, log10 conc −6.0 Molar",79%
same,Percent Growth,"MALM-3M; MALM-3M, log10 conc −7.0 Molar",85%
same,Percent Growth,"MALM-3M; MALM-3M, log10 conc −8.0 Molar",92%
same,GI50,NCI-H522; Homo sapiens,0.337 µM
same,CC50,NCI-H522; [2],> 100 µM
same,TGI,NCI-H522,>2.72E−05 Molar
same,Percent Growth,NCI-H522; log10 conc −4.0 Molar,−16%
same,Percent Growth,NCI-H522; log10 conc −5.0 Molar,12%
same,Percent Growth,NCI-H522; log10 conc −6.0 Molar,13%
same,Percent Growth,NCI-H522; log10 conc −7.0 Molar,91%
same,Percent Growth,NCI-H522; log10 conc −8.0 Molar,99%
same,GI50,"K-562; Homo sapiens, K562, 48 h",0.394 µM
same,CC50,"K-562; Homo sapiens, K562, K-562, 48 h, read-out: LC50 (the source's name)",> 100 µM
same,TGI,"K-562; K-562, 48 h",>1.00E−04 Molar
same,Percent Growth,"K-562; K-562, log10 conc −4.0 Molar, 48 h",26%
same,Percent Growth,"K-562; K-562, log10 conc −5.0 Molar, 48 h",25%
same,Percent Growth,"K-562; K-562, log10 conc −6.0 Molar, 48 h",38%
same,Percent Growth,"K-562; K-562, log10 conc −7.0 Molar, 48 h",68%
same,Percent Growth,"K-562; K-562, log10 conc −8.0 Molar, 48 h",82%
same,GI50,"IGROV1; Homo sapiens, IGROV-1, 48 h",1.88 µM
same,CC50,"IGROV1; Homo sapiens, IGROV-1, IGROV1, 48 h, read-out: LC50 (the source's name)",> 100 µM
same,TGI,"IGROV1; IGROV1, 48 h",>1.00E−04 Molar
same,Percent Growth,"IGROV1; IGROV1, log10 conc −4.0 Molar, 48 h",25%
same,Percent Growth,"IGROV1; IGROV1, log10 conc −5.0 Molar, 48 h",34%
same,Percent Growth,"IGROV1; IGROV1, log10 conc −6.0 Molar, 48 h",56%
same,Percent Growth,"IGROV1; IGROV1, log10 conc −7.0 Molar, 48 h",97%
same,Percent Growth,"IGROV1; IGROV1, log10 conc −8.0 Molar, 48 h",102%
